Structures can show the parent of a compound that is named as a salt.

This passage reports IC50 results from patent publication US20120183579A1, “COMPOUNDS FOR INFLAMMATION AND IMMUNE-RELATED USES” (Synta Pharmaceuticals Corp., priority 2008, published 2012).

The subject of the first experiment is IL-2. The experiment is described as follows: Inhibition of IL-2 production (Jurkat cells activated with PHA, ELISA). Conditions: Homo sapiens, Jurkat, Jurkat/PHA/1% FBS; activity class. Type of experiment: cell-based. Here is the method:
Jurkat cells were placed in a 96 well plate (0.5 million cells per well in 1% FBS medium), and then a test compound of this invention was added at different concentrations. After 10 minutes, the cells were activated with PHA (final concentration 2.5 μg/mL) and incubated for 20 hours at 37° C. under 5% CO2. The final volume was 200 μL. Following incubation, the cells were centrifuged, and the supernatants collected and stored at −70° C. prior to assaying for IL-2 production. A commercial ELISA kit (IL-2 Eli-pair, Diaclone Research, Besancon, France) was used to detect production of IL-2, from which dose response curves were obtained. The IC50 value was calculated as the concentration at which 50% of maximum IL-2 production after stimulation was inhibited versus a non-stimulation control.
`CC1=C(c2cnc(NC(=O)c3c(F)cccc3F)cn2)CN(c2nc(-c3cccnc3)cs2)CC1` [Compound 17, 2,6-difluoro-N-(5-(4-methyl-1-(4-(pyridin-3-yl)thiazol-2-yl)-1,2,5,6-tetrahydropyridin-3-yl)pyrazin-2-yl)benzamide] returned an IC50 of 50 to 100 nM.

The experiment is the same for the next values; noted with them: Homo sapiens, Jurkat, Jurkat/PHA/1% FBS; numeric values.
`CC1=C(c2ccc(NC(=O)c3ccccc3F)cc2)CN(c2nccs2)CC1` [Compound 7, 2-fluoro-N-(4-(4-methyl-1-(thiazol-2-yl)-1,2,5,6-tetrahydropyridin-3-yl)phenyl)benzamide] had an IC50 of 13 nM. For the compound `Cn1nnc(N2CCC(C3CC3)=C(c3ccc(NC(=O)c4c(F)cccc4F)cc3)C2)n1` [Compound 8, N-(4-(4-cyclopropyl-1-(2-methyl-2H-tetrazol-5-yl)-1,2,5,6-tetrahydropyridin-3-yl)phenyl)-2,6-difluorobenzamide], half-maximal inhibition (IC50) was put at 14 nM. This IC50 and that of the compound before are within 1.5-fold of each other. Same read-out and setting: the figure for `CC1=C(c2cnc(NC(=O)c3c(F)cccc3F)cn2)CN(c2ncc(C)s2)CC1` [Compound 9, 2,6-difluoro-N-(5-(4-methyl-1-(5-methylthiazol-2-yl)-1,2,5,6-tetrahydropyridin-3-yl)pyrazin-2-yl)benzamide hydrochloride] is 15 nM. `CC1=C(c2cnc(NC(=O)c3c(F)cccc3F)cn2)CN(c2ncccc2C#N)CC1` [Compound 10, N-(5-(1-(3-cyanopyridin-2-yl)-4-methyl-1,2,5,6-tetrahydropyridin-3-yl)pyrazin-2-yl)-2,6-difluorobenzamide] displayed an IC50 of 18 nM. `O=C(Nc1cnc(C2=C(Cl)CCN(c3nccs3)C2)cn1)c1c(F)cccc1F` [Compound 12, N-(5-(4-chloro-1-(thiazol-2-yl)-1,2,5,6-tetrahydropyridin-3-yl)pyrazin-2-yl)-2,6-difluorobenzamide hydrochloride] yielded an IC50 of 19 nM. This IC50 and that of the compound before are within 1.5-fold of each other. `CC1=C(c2cnc(NC(=O)c3cc(F)ccc3C)cn2)CN(c2ncccc2F)CC1` [Compound 13, 5-fluoro-N-(5-(1-(3-fluoropyridin-2-yl)-4-methyl-1,2,5,6-tetrahydropyridin-3-yl)pyrazin-2-yl)-2-methylbenzamide] showed an IC50 of 30 nM. The compound `CC1=C(c2cnc(NC(=O)c3cc(F)ccc3Cl)cn2)CN(c2ncccc2F)CC1` [Compound 16, 2-chloro-5-fluoro-N-(5-(1-(3-fluoropyridin-2-yl)-4-methyl-1,2,5,6-tetrahydropyridin-3-yl)pyrazin-2-yl)benzamide] gave an IC50 of 30 nM. In other words, the double-digit nanomolar range. The same measure, in the same setting: the figure for `CCn1nnc(N2CCC(C)=C(c3cnc(NC(=O)c4c(F)cccc4Cl)cn3)C2)n1` [Compound 18, 2-chloro-N-(5-(1-(2-ethyl-2H-tetrazol-5-yl)-4-methyl-1,2,5,6-tetrahydropyridin-3-yl)pyrazin-2-yl)-6-fluorobenzamide] is 32 nM; for `CC1=C(c2cnc(NC(=O)c3c(F)cccc3F)cn2)CN(c2ncc(F)cc2F)CC1` [Compound 19, N-(5-(1-(3,5-difluoropyridin-2-yl)-4-methyl-1,2,5,6-tetrahydropyridin-3-yl)pyrazin-2-yl)-2,6-difluorobenzamide] it is 36 nM. Same read-out and setting: the value for `CC1=C(c2ccc(NC(=O)c3c(F)cccc3F)cc2)CN(c2nnn(C)n2)CC1` [Compound 20, 2,6-difluoro-N-(4-(4-methyl-1-(2-methyl-2H-tetrazol-5-yl)-1,2,5,6-tetrahydropyridin-3-yl)phenyl)benzamide] was 52 nM; that for `CC1=C(c2cnc(NC(=O)c3cc(F)ccc3Cl)cn2)CN(c2nccs2)CC1` [Compound 21, 2-chloro-5-fluoro-N-(5-(4-methyl-1-(thiazol-2-yl)-1,2,5,6-tetrahydropyridin-3-yl)pyrazin-2-yl)benzamide] was 55 nM. `CC1=C(c2cnc(NC(=O)c3ccc(F)cc3F)cn2)CN(c2nccs2)CC1` [Compound 22, 2,4-difluoro-N-(5-(4-methyl-1-(thiazol-2-yl)-1,2,5,6-tetrahydropyridin-3-yl)pyrazin-2-yl)benzamide] yielded an IC50 of 10 nM. The same measure, in the same setting: the figure for `CC1=C(c2ccc(NC(=O)c3ccncc3F)cc2)CN(c2ncccc2F)CC1` [Compound 23, 3-fluoro-N-(4-(1-(3-fluoropyridin-2-yl)-4-methyl-1,2,5,6-tetrahydropyridin-3-yl)phenyl)isonicotinamide] is 14 nM; for `CC1=C(c2cnc(NC(=O)c3c(F)cccc3F)cn2)CN(c2ncccc2O)CC1` [Compound 24, 2,6-difluoro-N-(5-(1-(3-hydroxypyridin-2-yl)-4-methyl-1,2,5,6-tetrahydropyridin-3-yl)pyrazin-2-yl)benzamide] it is 14 nM; for `CC1=C(c2ccc(NC(=O)c3ccccc3Cl)cc2)CN(c2nnn(C)n2)CC1` [Compound 25, 2-chloro-N-(4-(4-methyl-1-(2-methyl-2H-tetrazol-5-yl)-1,2,5,6-tetrahydropyridin-3-yl)phenyl)benzamide] it is 17 nM. On the same count and under the same terms, the value for `CC1=C(c2ccc(NC(=O)c3c(F)cncc3F)cc2)CN(c2ccccn2)CC1` [Compound 26, 3,5-difluoro-N-(4-(4-methyl-1-(pyridin-2-yl)-1,2,5,6-tetrahydropyridin-3-yl)phenyl)isonicotinamide hydrochloride] was 18 nM. `CC1=C(c2ccc(NC(=O)c3ccncc3Cl)cc2)CN(c2nnn(C)n2)CC1` [Compound 27, 3-chloro-N-(4-(4-methyl-1-(2-methyl-2H-tetrazol-5-yl)-1,2,5,6-tetrahydropyridin-3-yl)phenyl)isonicotinamide] displayed an IC50 of 19 nM. This IC50 and that of the compound before are within 1.5-fold of each other.

The compound `O=C(Nc1ccc(C2=C(Cl)CCN(c3nccs3)C2)cc1)c1c(F)cccc1F` [Compound 28, N-(4-(4-chloro-1-(thiazol-2-yl)-1,2,5,6-tetrahydropyridin-3-yl)phenyl)-2,6-difluorobenzamide] came in with an IC50 of 19 nM. Same read-out and setting: the value for `CC1=C(c2ccc(NC(=O)c3cccc(F)c3Cl)cc2)CN(c2nnn(C)n2)CC1` [Compound 29, 2-chloro-3-fluoro-N-(4-(4-methyl-1-(2-methyl-2H-tetrazol-5-yl)-1,2,5,6-tetrahydropyridin-3-yl)phenyl) benzamide] was 20 nM; that for `CC1=C(c2ccc(NC(=O)c3ccccc3F)cc2)CN(c2nnn(C)n2)CC1` [Compound 30, 2-fluoro-N-(4-(4-methyl-1-(2-methyl-2H-tetrazol-5-yl)-1,2,5,6-tetrahydropyridin-3-yl)phenyl)benzamide] was 21 nM. In the case of `CC1=C(c2cnc(NC(=O)c3cnccc3C)cn2)CN(c2ncccc2F)CC1` [Compound 31, N-(5-(1-(3-fluoropyridin-2-yl)-4-methyl-1,2,5,6-tetrahydropyridin-3-yl)pyrazin-2-yl)-4-methylnicotinamide], the IC50 was 21 nM. `CC1=C(c2ccc(NC(=O)c3c(F)cccc3F)cc2)CN(c2ccccn2)CC1` [Compound 33, 2,6-difluoro-N-(4-(4-methyl-1-(pyridin-2-yl)-1,2,5,6-tetrahydropyridin-3-yl)phenyl)benzamide]: the IC50 was found to be 22 nM.

Still in this experiment, the particulars now being: Jurkat/PHA/1% FBS; numeric values; hydrochloride.
Take `O=C(Nc1ccc(C2=C(Cl)CCN(c3nccs3)C2)cc1)c1c(F)cccc1F` [Compound 32, N-(4-(4-chloro-1-(thiazol-2-yl)-1,2,5,6-tetrahydropyridin-3-yl)phenyl)-2,6-difluorobenzamide hydrochloride]: half-maximal inhibition (IC50) was put at 21 nM. In other words, the double-digit nanomolar range.

By IC50 is commonly meant the concentration that inhibits the measured activity by half. The low end stands for inhibition by little substance, the high end for a need for much substance.
